Data published in PMC7139549, “TLD1433 Photosensitizer Inhibits Conjunctival Melanoma Cells in Zebrafish Ectopic and Orthotopic Tumour Models” (Cancers, 2020).
Read-outs that look alike come from different tables or passages of the source.

System: CRMM1 conjunctival melanoma cell line
Assay: SRB cell viability assay, CRMM1
Type: cell-based, Human
Method: TLD1433 is known to generate reactive oxygen species (ROS) with high quantum efficacy in many cancer cell lines. However, there is no report of the in vitro toxicity of this compound in eye melanoma (UM) cell lines. We determined the cell viability of three conjunctival melanoma cell lines (CRMM1, CRMM2 and CM2005.1), and three uveal melanoma cell lines (OMM1, OMM2.5, MEL270) in the presence of TLD1433, both in the dark or under green light irradiation (21 mW/cm^2, 19 J/cm^2, 520 nm, 15 min), and compared this viability to epidermoid carcinoma A431 and cutaneous melanoma A375 cell lines under the same conditions. The protocol used was based on previous work from the Bonnet group, and differed slightly from recommendations from McFarland et al.. […] The effective concentration (EC50) values, i.e., the concentration required to reduce cell viability by 50% compared to untreated wells, were assessed by fitting the dose-response curves with a Hill equation. The phototoxicity index (PI), defined as the ratio of the dark EC50 to the light EC50, was also calculated and represents the amplification of TLD1433 activity with a light trigger. […]
Figure 2 Cell viability after TLD1433 treatment of eight tumour cell lines (CRMM1, CRMM2, CM2005.1, OMM1, OMM2.5, MEL270, A431, A375). […] The absorbance of Sulforhodamine B in solution was measured at 520 nm. […]
At day 0, cells were detached using 1mL of trypsin, resuspended in 4 mL of media and transferred to a 15 mL corning falcon tube. Cells were counted using trypan blue and BioRad® TC20™ automated cell counter (Figure 11). Dilutions of 6000 (CRMM1), 6000 (CRMM2), 8000 (CM2005.1), 6000 (OMM1), 6000 (OMM2.5), 6000 (MEL270) 8000 (A431), and 4000 (A375) cells/well were calculated from each cell suspension at a final volume of 6 mL using the following formula: Vc=(Vt×10C)/Lc where Vt = total volume of solution, C = number of cells per well/per 100 μL and Lc = live cells count (cells/mL). […] Next day, the dye was dissolved using Tri-base (0.25%) and absorbance of SRB at 510 nm was recorded from each well using a Tecan plate reader. […]

For `Cc1ccnc(-c2cc(C)ccn2)c1.Cc1ccnc(-c2cc(C)ccn2)c1.[Cl-].[Cl-].[Ru+2].c1csc(-c2ccc(-c3ccc(-c4nc5c6cccnc6c6ncccc6c5[nH]4)s3)s2)c1` [TLD1433], the EC50 (CRMM1, dark, 24 h treatment, SRB, read-out: EC50, dark) was 840 nM, the EC50 (CRMM1, green light 520 nm, 15 min, 21 mW/cm^2, 19 J.cm^−2, DLI 24 h, read-out: EC50,light) was 5.9 nM and the “PI (photo index)” value (CRMM1, ratio of dark and light EC50, 19 J.cm^−2 green light) was 140.
